Reference: patent US12195493B2, “Reversibly blocked nucleoside analogues and their use” (MGI Tech Co., Ltd., priority 2016, dated 2025)
Entries after “also recorded” stand apart in the source; their conditions may differ.

Key:
[1] = 3′-O-Cyanoethyl cleavage in solution or on Biochips; details: added reagent in cleavage buffer, FIGS. 2 and 3
polymerase = test: Polymerase incorporation in sequencing by synthesis on nanoball arrays (FIG. 1); type: biochemical; details: compared with unlabeled (cold) control 3′-O-azidomethyl-dTTP
Protocol: (§1) Allenyl-dTTP and cyanoethenyl-dTTP were incubated at room temperature for 24 hours, or 65° C. for 2 hours. Fresh mixes were also made the day of the experiment. Allenyl-dTTP or cyanoethenyl-dTTP were mixed with unlabeled AGC (AGC-Cold) and used as both the hot (labeled) and cold (unlabeled) chase. Nanoball arrays were imaged to obtain a control image. Then, the array was incubated with labeled mixes to check for incorporation on unblocked ends. […] Moreover, both allenyl-dTTP and cyanoethenyl-dTTP are stable at room temperature for 24 hours and 65° C. for 2 hours as indicated by their ability to efficiently incorporate into polymerization product and thereby block subsequent polymerization and incorporation of the hot chase label.

[2] = Stability after incubation, read out by incorporation and blocking of hot chase label; type: physicochemical
Protocol: as §1

[3] = Monitoring cleavage of 3′-O reversible blocker by LC-MS (Example 2); type: physicochemical
Protocol: Cleavage reactions were performed using 5 mg of compound 8 (3′-O-cyanoethyenyl-thymidine) in 0.25 mL of acetonitrile and 0.25 mL of buffer. Cleavage was monitored by LC-MS and the results are depicted in the table below.

[4] = Cleavage studies with a variety of nucleophiles at 50° C. (Example 6); type: physicochemical
Protocol: Cleavage studies were performed according to the scheme shown below using a variety of nucleophiles. The nucleophiles, concentration, pH, and solvent are indicated for each study. The nucleoside analogue containing a 3′-O-blocking group and a linking group were treated with a nucleophile at 50° C. in solvent to form analogues having both the blocking group and linking group cleaved 13 and only the linking group cleaved 15. SM indicates starting material.
Table of Results (Experimental Conditions: T=50° C.; 1.0 mg 12/mL solvent).

F [F^−]
effect on cleavage efficiency [1]: improved effect

O=P([O-])([O-])OP(=O)([O-])[O-].[K+].[K+].[K+].[K+] [K4PPi]
effect on cleavage efficiency [1]: improved effect

Cc1cn([C@H]2C[C@H](OC=CC#N)[C@@H](COP(=O)(O)OP(=O)(O)OP(=O)(O)O)O2)c(=O)[nH]c1=O [cyanoethenyl-dTTP, 3′-O-cyanoethenyl-thymidine triphosphate]
effectiveness as polymerase substrate for sequencing by synthesis (polymerase): as effective a polymerase substrate for sequencing by synthesis as the unlabeled control 3′-O-azidomethyl-dTTP | effectiveness as polymerase substrate for sequencing by synthesis (polymerase; listed as cyanoethyl-dTTP): as effective polymerase substrates for sequencing as the cold control, 3′-azidomethyl-dTTP | stability ([2]; 65° C. for 2 hours): stable | stability ([2]; room temperature for 24 hours): stable

Cc1cn([C@H]2C[C@H](OC=CC#N)[C@@H](CO)O2)c(=O)[nH]c1=O [compound 8, 3′-O-cyanoethenyl-thymidine]
time to complete cleavage ([3]; 10 equivalents of dimethylamine in acetonitrile/0.1 M TEAB): 20 to 30 min | time to complete cleavage ([3]; 40 equivalents of dimethylamine in acetonitrile/0.1 M TEAB): ≤ 10 min | time to complete cleavage ([3]; 40 equivalents of dimethylamine in acetonitrile/0.5 M phosphate buffer): 10 to 20 min | time to complete cleavage ([3]; 40 equivalents of dimethylamine in acetonitrile/1 M Tris buffer): ≤ 10 min

C=C=CO[C@H]1C[C@H](n2cc(C)c(=O)[nH]c2=O)O[C@@H]1COP(=O)(O)OP(=O)(O)OP(=O)(O)O [allenyl-dTTP, 3′-O-allenyl-thymidine triphosphate]
effectiveness as polymerase substrate for sequencing by synthesis (polymerase): as effective a polymerase substrate for sequencing by synthesis as the unlabeled control 3′-O-azidomethyl-dTTP; also recorded: as effective polymerase substrates for sequencing as the cold control, 3′-azidomethyl-dTTP | stability ([2]; 65° C. for 2 hours): stable | stability ([2]; room temperature for 24 hours): stable

N#C/C=C/O[C@H]1C[C@H](n2cc(C#CCNC(=O)C(F)(F)F)c(=O)[nH]c2=O)O[C@@H]1CO [compound 12]
amount of the product obtained (SM = starting material) ([4]; Entry 22, Morpholine 1.0 M, pH 9.0, Water + 10% MeCN, t = 1 h): 25% SM + 40% of (15) + 35% of unidentified species | amount of the product obtained (SM = starting material) ([4]; Entry 22, Morpholine 1.0 M, pH 9.0, Water + 10% MeCN, t = 18 h): No SM 40% of (15) + 60% of unidentified species | amount of the product obtained (SM = starting material) ([4]; Entry 24, Cleland's reagent (dithiothreitol) 1.0 M, pH 9.0, Water + 10% MeCN, t = 1 h): 5% SM + 95% of unidentified species | amount of the product obtained (SM = starting material) ([4]; Entry 24, Cleland's reagent (dithiothreitol) 1.0 M, pH 9.0, Water + 10% MeCN, t = 18 h): No SM + unidentified species | amount of the product obtained (SM = starting material) ([4]; Entry 25, 4-Methoxy-N-methylaniline 1.0 M, pH 8.3, Water/MeCN (1:2), t = 1 h): 95% SM + 5% of unidentified species | amount of the product obtained (SM = starting material) ([4]; Entry 25, 4-Methoxy-N-methylaniline 1.0 M, pH 8.3, Water/MeCN (1:2), t = 18 h): 95% SM + 5% of unidentified species | amount of the product obtained (SM = starting material) ([4]; Entry 26, N,N′-Dimethylene diamine 1.0 M, pH 9.0, Water + 10% MeCN, t = 1 h): 5% SM + 20% of (15) + 75% of unidentified species | amount of the product obtained (SM = starting material) ([4]; Entry 26, N,N′-Dimethylene diamine 1.0 M, pH 9.0, Water + 10% MeCN, t = 18 h): No SM + 20% of (15) + 80% of unidentified species | amount of the product obtained (SM = starting material) ([4]; Entry 27, N-Methylhydroxyl amine hydrochloride 1.0 M, pH 9.0, Water + 10% MeCN, t = 1 h): 16% Product (13) + 10% of (15) + 74% of unidentified species | amount of the product obtained (SM = starting material) ([4]; Entry 27, N-Methylhydroxyl amine hydrochloride 1.0 M, pH 9.0, Water + 10% MeCN, t = 18 h): 10% of (15) + 90% of unidentified species | amount of the product obtained (SM = starting material) ([4]; Entry 28, N,N′-dimethyl-cis-cyclohexane-1,2-diamine 1.0 M, pH 9.0, Water/MeCN (2:1), t = 1 h): 60% SM + 35% of (15) + 5% of unidentified species | amount of the product obtained (SM = starting material) ([4]; Entry 28, N,N′-dimethyl-cis-cyclohexane-1,2-diamine 1.0 M, pH 9.0, Water/MeCN (2:1), t = 18 h): 30% SM + 50% of (15) + 20% of unidentified species
